Values of other authors, collected in paper PMC4198065 (ACS Chemical Neuroscience, 2014).
Each block holds one substance with its values, some of them ahead of it.

Key:
food intake in mice = conditions: effect lasting up to 24 h
[1] = test system: food consumption and body weight in rats; conditions: ICV

Substance: AGRP: endogenous antagonist of the MC3R and MC4R (SSRRCVRLHESCLGQQVPCCDPCATCYCRFFNAFCYCRKLGTAMNPCSRT; UniProt O00253 83-132, looked up)
food intake after central administration (food intake in mice): robustly increased food intake

Substance: Ac-Nle-c[Asp-His-DPhe-Arg-Trp-Lys]-NH2 (sidechain bridge or staple) [MTII]
48 h food consumption ([1]; 1.0 nmol dose): reduced 48 h food consumption | body weight post treatment ([1]; at 24 and 48 h (0.1 and 1.0 nmol doses, respectively)): reduced body weight at 24 and 48 h

half-life in human serum: 1.5 h
Substance: Ac-RRWWRF-NH2 [AST789-13, Ac-RRWWRF-NH2]
